Assay results from patent US5036059A, “1,4-Dihydropyridine-3-carboxylate derivatives” (Nippon Shinyaku Company, Limited, priority 1984, dated 1991).
Counter-ions that a name gives are not always drawn.

Experiments:
[1] = tested on: spontaneously hypertensive rats; assay: Hypotensive action in spontaneously hypertensive rats, systolic arterial blood pressure by tail plethysmography, oral; type: in vivo; conditions: 30 mg/kg p.o.
Method: (§1) Hypotensive action of diltiazem (which is a known hypotensive drug) measured by the same method at the doses of 3, 10 and 30 mg/kg were 0, 11.2 and 33.0%, respectively. Hypotensive action of the compound of Example 4 which is one of the most representative compounds of this invention was tested using spontaneously hypertensive rats and was compared with those of Nifedipine and Diltiazem hydrochloride. The method applied was that the drugs were orally given to the rats of which systolic arterial blood pressure were higher than 180 mmHg when it was measured plethysmographically using tail arteries. (Table 3)
Doses in mg/kg (p.o.) are as follows: *0.3 (1.0); **1.0 (3.0); ***30.

[2] = tested on: rats (with normal blood pressure); assay: Hypotensive action, mean blood pressure of femoral artery in unanesthetized normotensive rats, oral; type: in vivo; conditions: Rattus norvegicus, read-out: % Decreases in Mean Blood Pressure [at peak effect]; for inhibition in vivo at 1 mg/kg: 1 mg/kg oral; for inhibition in vivo at 3 mg/kg: 3 mg/kg oral; for inhibition in vivo at 10 mg/kg: 10 mg/kg oral
Method: Blood pressure of femoral artery of rats (with normal blood pressure) under unanesthetized condition was measured directly using a pressure tranducer.
The present invention compounds were given orally at doses of 1, 3 and 10 mg/kg, and changes in blood pressure were continuously recorded. Percent decreases of mean blood pressure at the peak effect were calculated. The maximum changes in mean blood pressure (%) were shown as "hypotensive action" (Table 2).
as §1

[3] = tested on: guinea pig heart; assay: Coronary vasodilating action, constant pressure perfusion of isolated guinea pig heart (Langendorff); conditions: Cavia porcellus, via coronary artery; for activation at 0.001 mg: 10^-6 gram/heart; for activation at 0.001 mg / activation at 0.0001 mg: read-out: Perfusion Increasing Rate; for activation at 0.0001 mg: 10^-7 gram/heart
Method: Constant pressure perfusion samples of guinea pig heart isolated by a method according to Langendorff were treated with the present invention compounds by administration via coronary artery and the effect was examined (Table 1).
With reference to coronary vasodilating action of diltiazem measured by the same method, the increasing rates in perfusion by administration of 10^-7, 10^-6 and 10^-5 gram/heart were 4, 16 and 55%, respectively.

Row | Compound | inhibition in vivo at 1 mg/kg [2] [%] | inhibition in vivo at 3 mg/kg [2] [%] | inhibition in vivo at 10 mg/kg [2] [%] | activation at 0.001 mg [3] [%] | activation at 0.0001 mg [3] [%] | also measured
1 | COc1ccc([C@@H]2Sc3ccccc3N(CCN(C)C)C(=O)[C@@H]2OC(C)=O)cc1 [Diltiazem.HCl] |  |  |  |  |  | systolic arterial blood pressure ([1]; 0.5 hr after administration): 153.6 ± 5.4; systolic arterial blood pressure ([1]; 1 hr after administration): 141.8 ± 10.8; systolic arterial blood pressure ([1]; 2 hr after administration): 156.2 ± 8.8; systolic arterial blood pressure ([1]; 3 hr after administration): 170.5 ± 4.8; systolic arterial blood pressure ([1]; 5 hr after administration): 183.2 ± 2.8; systolic arterial blood pressure ([1]; 8 hr after administration): 189.3 ± 4.6; systolic arterial blood pressure ([1]; 12 hr after administration): 188.5 ± 2.0; systolic arterial blood pressure ([1]; before administration): 191.2 ± 5.4
2 | CC1=C(C(=O)OC2CCN(Cc3ccccc3)CC2)C(c2cccc([N+](=O)[O-])c2)C(P2(=O)OCCCO2)=C(C)N1 (stereo not drawn) [Example 3, N-Benzyl-4-piperidinyl 2,6-dimethyl-4-(3-nitrophenyl)-5-(2-oxo-1,3,2-dioxaphosphorinan-2-yl)-1,4-dihydropyridine-3-carboxylate] | 8.2 | 11.1 | 20.9 | 18 | 10 | 
3 | CCOC(=O)C1=C(C)NC(C)=C(P2(=O)OCC(C)(C)CO2)C1c1cccc([N+](=O)[O-])c1 (stereo not drawn) [Example 8, Ethyl 2,6-dimethyl-5-(5,5-dimethyl-2-oxo-1,3,2-dioxaphosphorinan-2-yl)-4-(3-nitrophenyl-1)-1,4-dihydropyridine-3-carboxylate] | 8.1 | 15.5 | 37.1 | 33 | 11 | 
4 | CC1=C(C(=O)OCCN(C)Cc2ccccc2)C(c2cccc([N+](=O)[O-])c2)C(P2(=O)OC(C)CC(C)O2)=C(C)N1 (stereo not drawn) [Example 17, 2-(N-Benzyl-N-methylamino)-ethyl 2,6-dimethyl-5-(4,6-dimethyl-2-oxo-1,3,2-dioxaphosphorinan-2-yl)-4-(3-nitrophenyl)-1,4-dihydropyridine-3-carboxylate] | 24.8 | 36.8 | 47 | 23 | 10 | 
5 | CCC1(CC)COP(=O)(C2=C(C)NC(C)=C(C(=O)OCCN(C)Cc3ccccc3)C2c2cccc([N+](=O)[O-])c2)OC1 (stereo not drawn) [Example 22, 2-(N-Benzyl-N-methylamino)-ethyl 5-(5,5-diethyl-2-oxo-1,3,2-dioxaphosphorinan-2-yl)-2,6-dimethyl-4-(3-nitrophenyl)-1,4-dihydropyridine-3-carboxylate] | 7.3 | 10.4 | 18.4 | 31 | 21 | 
6 | CCOC(=O)C1=C(C)NC(C)=C(P2(=O)OCC(C(C)C)CO2)C1c1cccc([N+](=O)[O-])c1 (stereo not drawn) [Example 32, Ethyl 2,6-dimethyl-4-(3-nitrophenyl)-5-(5-isopropyl-2-oxo-1,3,2-dioxaphosphorinan-2-yl)-1,4-dihydropyridine-3-carboxylate] | 7.8 | 21.2 | 30.5 | 77 | 24 | 
7 | CCOC(=O)C1=C(C)NC(C)=C(P2(=O)OCC3(CCCCC3)CO2)C1c1ccccc1[N+](=O)[O-] (stereo not drawn) [Example 43, Ethyl 2,6-dimethyl-4-(2-nitrophenyl)-5-(3-oxo-2,4-dioxa-3-phosphaspiro(5,5)undecan-3-yl)-1,4-dihydropyridine-3-carboxylate] |  |  |  | 56 | 12 | 
8 | CCOC(=O)C1(C(=O)OCC)COP(=O)(C2=C(C)NC(C)=C(C(=O)OCCN(C)Cc3ccccc3)C2c2cccc([N+](=O)[O-])c2)OC1 (stereo not drawn) [Example 45, 2-(N-Benzyl-N-methylamino)-ethyl 5-(5,5-diethoxycarbonyl-2-oxo-1,3,2-dioxaphosphorinan-2-yl)-2,6-dimethyl-4-(3-nitrophenyl)-1,4-dihydropyridine-3-carboxylate] |  |  |  | 29 | 10 | 
9 | CCOC(=O)C1(C(=O)OCC)COP(=O)(C2=C(C)NC(C)=C(C(=O)OC)C2c2ccccc2[N+](=O)[O-])OC1 (stereo not drawn) [Example 46, Methyl 5-(5,5-diethoxycarbonyl-2-oxo-1,3,2-dioxaphosphorinan-2-yl)-2,6-dimethyl-4-(2-nitrophenyl)-1,4-dihydropyridine-3-carboxylate] |  |  |  | 19 | 12 | 
10 | CC1=C(C(=O)OCCN(C)Cc2ccccc2)C(c2cccc([N+](=O)[O-])c2)C(P2(=O)OC(C)(C)C(C)(C)O2)=C(C)N1 (stereo not drawn) [Example 48, 2-(N-Benzyl-N-methylamino)-ethyl 2,6-dimethyl-4-(3-nitrophenyl)-5-(2-oxo-4,4,5,5-tetramethyl-1,3,2-dioxaphospholan-2-yl)-1,4-dihydropyridine-3-carboxylate] |  |  |  | 35 | 13 | 
11 | CCCOCCOC(=O)C1=C(C)NC(C)=C(P2(=O)OC(C)(C)C(C)(C)O2)C1c1cccc([N+](=O)[O-])c1 (stereo not drawn) [Example 49, 2-n-Propoxyethyl 2,6-dimethyl-4-(3-nitrophenyl)-5-(2-oxo-4,4,5,5-tetramethyl-1,3,2-dioxaphospholan-2-yl)-1,4-dihydropyridine-3-carboxylate] |  |  |  | 34 | 14 | 
12 | COC(=O)C1=C(C)NC(C)=C(P2(=O)OCCCO2)C1c1ccccc1C(F)(F)F (stereo not drawn) [Example 50, Methyl 2,6-dimethyl-5-(2-oxo-1,3,2-dioxaphosphorinan-2-yl)-4-(2-trifluoromethylphenyl)-1,4-dihydropyridine-3-carboxylate] | 42.3 | 44.3 | 47.2 | 46 | 15 | 
13 | CC1=C(C(=O)OCCN(C)Cc2ccccc2)C(c2ccccc2C(F)(F)F)C(P2(=O)OCCCO2)=C(C)N1 (stereo not drawn) [Example 52] | 18.4 | 37.2 | 42.8 | 62 | 10 | 
14 | COC(=O)C1=C(C)NC(C)=C(P2(=O)OCCCO2)C1c1ccccc1OC(F)F (stereo not drawn) [Example 53, Methyl 4-(2-difluoromethoxyphenyl)-2,6-dimethyl-5-(2-oxo-1,3,2-dioxaphosphorinan-2-yl)-1,4-dihydropyridine-3-carboxylate] | 24.5 | 45.4 | 49.7 | 25 | 16 | 
15 | COC(=O)C1=C(C)NC(C)=C(P2(=O)OCCCO2)C1c1cccc(Cl)c1Cl (stereo not drawn) [Example 56, Methyl 4-(2,3-dichlorophenyl)-2,6-dimethyl-5-(2-oxo-1,3,2-dioxaphosphorinan-2-yl)-1,4-dihydropyridine-3-carboxylate] |  |  |  | 75 | 55 | 
16 | CCOC(=O)C1=C(C)NC(C)=C(P2(=O)OCCCO2)C1c1cccc(Cl)c1Cl (stereo not drawn) [Example 57, Ethyl 4-(2,3-dichlorophenyl)-2,6-dimethyl-5-(2-oxo-1,3,2-dioxaphosphorinan-2-yl)-1,4-dihydropyridine-3-carboxylate] |  |  |  | 17 | 11 | 
17 | CC1=C(C(=O)OCCN(C)Cc2ccccc2)C(c2cccc(Cl)c2Cl)C(P2(=O)OCC(C)(C)CO2)=C(C)N1 (stereo not drawn) [Example 59, 2-(N-Benzyl-N-methylamino)-ethyl 4-(2,3-dichlorophenyl)-2,6-dimethyl-5-(5,5-dimethyl-2-oxo-1,3,2-dioxaphosphorinan-2-yl)-1,4-dihydropyridine-3-carboxylate] | 7.1 | 29.1 | 35.1 | 33 | 24 | 
18 | CC1=C(C(=O)OCCN(C)Cc2ccccc2)C(c2ccccc2C(F)(F)F)C(P2(=O)OCC(C)(C)CO2)=C(C)N1 (stereo not drawn) [Example 62, 2-(N-Benzyl-N-methylamino)-ethyl 2,6-dimethyl-5-(5,5-dimethyl-2-oxo-1,3,2-dioxaphosphorinan-2-yl)-4-(2-trifluoromethylphenyl)-1,4-dihydropyridine-3-carboxylate] | 10.6 | 37.4 | 48.3 | 70 | 19 | 
19 | COc1ccc([C@@H]2Sc3ccccc3N(CCN(C)C)C(=O)[C@@H]2OC(C)=O)cc1 [diltiazem, reference compound] |  | 0 | 11.2 | 16 | 4 | inhibition in vivo at 30 mg/kg ([2]; 30 mg/kg oral): 33%; activation at 1e-05 g/heart, 1e-05 g/heart ([3]; 10^-5 gram/heart, read-out: increasing rate in perfusion): 55%
